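Each compound was tested at five concentrations against cells in 96-well plates for 48 hours. TGI: total growth inhibition.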
How the values were obtained:
Experiment in all cases: NCI tumour cell line growth inhibition, 48 h
[1] = test system: 786-0 renal
[2] = test system: A498 renal
[3] = test system: A549 NSCLC
[4] = test system: ACHN renal
[5] = test system: BT-549 breast
[6] = test system: CAKI-1 renal
[7] = test system: CCRF-CEM leukemia
[8] = test system: COLO 205 colon
[9] = test system: DU-145 prostate
[10] = test system: EKVX NSCLC
[11] = test system: HCC-2998 colon
[12] = test system: HCT-116 colon
[13] = test system: HCT-15 colon
[14] = test system: HL-60(TB) leukemia
[15] = test system: HOP-62 NSCLC
[16] = test system: HOP-92 NSCLC
[17] = test system: HS 578T breast
[18] = test system: HT29 colon
[19] = test system: IGROV1 ovarian
[20] = test system: K-562 leukemia
[21] = test system: KM12 colon
[22] = test system: LOX IMVI melanoma
[23] = test system: M14 melanoma
[24] = test system: MALME-3M melanoma
[25] = test system: MCF7 breast
[26] = test system: MDA-MB-231 breast
[27] = test system: MDA-MB-435
[28] = test system: MDA-N
[29] = test system: MOLT-4 leukemia
[30] = test system: NCI-H226 lung
[31] = test system: NCI-H23 lung
[32] = test system: NCI-H460 lung
[33] = test system: NCI-H522 lung
[34] = test system: NCI/ADR-RES ovarian
[35] = test system: OVCAR-3 ovarian
[36] = test system: OVCAR-4 ovarian
[37] = test system: OVCAR-5 ovarian
[38] = test system: OVCAR-8 ovarian
[39] = test system: PC-3 prostate
[40] = test system: RPMI-8226 leukemia
[41] = test system: RXF 393 renal
[42] = test system: SF-268 CNS
[43] = test system: SF-295 CNS
[44] = test system: SF-539 CNS
[45] = test system: SK-MEL-2 melanoma
[46] = test system: SK-MEL-28 melanoma
[47] = test system: SK-MEL-5 melanoma
[48] = test system: SK-OV-3 ovarian
[49] = test system: SN12C renal
[50] = test system: SNB-19 CNS
[51] = test system: SNB-75 CNS
[52] = test system: SR leukemia
[53] = test system: SW-620 colon
[54] = test system: T-47D breast
[55] = test system: TK-10 renal
[56] = test system: U251 CNS
[57] = test system: UACC-257 melanoma
[58] = test system: UACC-62 melanoma
[59] = test system: UO-31 renal

Measured: TGI

COc1ccc(/C=C/C(=O)/C=C/c2ccc(OC)cc2)cc1
72.7 µM: [44]
57.2 µM: [23]
52.5 µM: [53]
68.4 µM: [52]
36.6 µM: [41]
23.3 µM: [12]
59.6 µM: [21]
29.6 µM: [27]
41.3 µM: [57]
53.7 µM: [14]
95.4 µM: [8]
68.6 µM: [56]
31.4 µM: [38]
15.7 µM: [11]
55.9 µM: [40]
98.3 µM: [30]
80.6 µM: [16]
49 µM: [28]
> 100 µM: all other assays above

Source: PubChem BioAssay (NCI)
